Laboratory results taken from patent publication US12678518B2, “Theranostic probe and its use for targeting and/or labeling the EGFR kinase and/or the cells expressing EGFR or its family members” (Tianjin University, priority 2019, dated 2026).

Target: T1, EGFR dimers (L834R) (Homo sapiens, UniProt P00533, L858R)
T1 construct: one encoding human EGFR(1-998) fused with a split YFP-N(1-172) fragment; the other encoding hEGFR(1-998) linked to a split YFP-C(155-238) fragment; expressed in transfected cells; host or cells: HEK 293T
Assay: Protein complementary assay (split YFP), PDCy3 binding to EGFR dimers, L834R
Type: cell-based
Excerpt: Protein complementary assay. For protein complementary assay, we designed two complementary constructs: one encoding human EGFR(1-998) fused with a split YFP-N(1-172) fragment, and the other encoding hEGFR(1-998) linked to a split YFP-C(155-238) fragment. Kinase mutations were introduced on both constructs to make a complementary pair. All the constructs were verified by sequencing. The paired constructs encoding the same receptor were co-transfected into HEK 293T cells. Transfected cells were starved in EX-Cell 293 Serum-Free Medium for 44 hours before treatment with 1 μM PDCy3 for additional 4 hours. The dimerization of the EGF receptors and the binding of dimerized receptors to PDCy3 were analyzed by flowcytometry.
To further investigate how EGFR kinase dimerization affects PDCy3 binding, we did a protein complementary assay. In the assay, split YFP fragments were individually fused to the C-terminus of the full length EGFR, and EGF kinase dimerization was reported by the fluorescence of assembled YPF from co-transfected receptors (FIG. 4A)^23. As shown in the FIG. 4B, the cells with co-expressed EGFR dimers could be divided into two populations. In one population, the quantity of bound PDCy3 increased linearly as a function of the expression levels of EGFR dimers (FIG. 4C). But in the other population, the quantity of bound PDCy3 was independent of the expressed EGFR dimers. […]

- fraction of the population with the higher sensitivity to PDCy3 (population A) (L834R receptor pair, 1 μM PDCy3): 27.4%
- sensitivity of population A versus population B in response to PDCy3 binding (L858R (so in the source) mutant dimers): 5 times
SMILES: CN1/C(=C/C=C/C2=[N+](CCCCCC(=O)NCCC/C=C/C(=O)Nc3ccc4ncnc(Nc5cccc(Br)c5)c4c3)c3ccc(S(=O)(=O)O)cc3C2(C)C)C(C)(C)c2cc(S(=O)(=O)[O-])ccc21 [PDCy3, 1-(6-((E)-6-(4-(3-bromophenylamino)quinazolin-6-ylamino)-6-oxohex-4-enylamino)-6-oxohexyl)-3,3-dimethyl-2-((1E,3E)-3-(1,3,3-trimethyl-5-sulfonatoindolin-2-ylidene)prop-1-enyl)-3H-indolium-5-sulfonate]
